In patent publication US10265329B2, “Altering steroid metabolism for treatment of steroid-dependent disease” (THE CLEVELAND CLINIC FOUNDATION, priority 2015, dated 2019):
Entries after “also recorded” stand apart in the source; their conditions may differ.

Legend:
[1] = test system: androgen-responsive gene expression (PSA); test: Stimulation of androgen-responsive gene expression by Abi metabolites (qPCR); format: cell-based, human; details: LAPC4 and LNCaP
Description: Cells were starved with phenol red-free and serum free-medium for at least 48 h before treatment with the indicated drugs and/or androgens. RNA extraction and cDNA synthesis were performed with the GenElute Mammalian Total RNA miniprep kit (Sigma-Aldrich) and iScript cDNA Synthesis Kit (Bio-Rad, Hercules, Calif.) respectively. Quantitative PCR (qPCR) analysis was conducted in triplicate in an ABI 7500 Real-Time PCR machine (Applied Biosystems) using iTaq Fast SYBR Green Supermix with ROX (Bio-Rad) and primers for TMPRSS2, PSA and RPLPO, as described. Chang et al., Cell 154, 1074-1084 (2013). Accurate quantitation of each mRNA was achieved by normalizing the sample values to RPLPO and to vehicle-treated cells. 50 μg cell lysate was used for immunoblot with rabbit anti-SRD5A1 (Abnova) and mouse anti-β-actin (Sigma-Aldrich) antibodies.

VCaP CRPC xenografts = test: VCaP CRPC xenograft growth under 5α-reduced Abi metabolites; format: in vivo; details: orchiectomized mice; i.p. daily up to 20 days; >30% growth
Description: Male NSG mice, 6 to 8 weeks of age were obtained from the Cleveland Clinic Biological Resources Unit facility. All mouse studies were conducted under a protocol approved by the Cleveland Clinic Institutional Animal Care and Use Committee. 10^7 VCaP cells were injected subcutaneously with matrigel. […] Control groups were administered 0.15 mL 5% benzyl alcohol and 95% safflower oil solution via intraperitoneal injection every day. Tumor volume was measured every other day, and time to increase in tumor volume by 30% was determined (2 sequential increases). Mice were sacrificed at treatment day 20. The significance of the difference between treatment groups was assessed by Kaplan-Meier survival analysis using a log-rank test in SigmaStat 3.5.

human 3βHSD1 = biological target: T1, human 3βHSD1 (Homo sapiens, UniProt P14060); test: Recombinant 3βHSD1 enzyme assay, [3H]-pregnenolone metabolism (Lineweaver-Burk); format: biochemical; details: pregnenolone substrate; D4A 5-20 μmol/L
T1 construct: made in house; host or cells: yeast (microsomes)
Description: To test D4A as an inhibitor of 3βHSD, enzyme assays were performed as described previously. Li et al., Clin Cancer Res. 18:3571-3579 (2012). Briefly, incubations were prepared with recombinant human 3βHSD1 or 3βHSD2 (in yeast microsomes, 45 or 2.5 μg protein per incubation, respectively), [^3H]-pregnenolone (100,000 cpm, 1-20 μmol/L), and D4A (5-20 μmol/L) or ethanol vehicle in 0.5 mL of potassium phosphate buffer (pH 7.4). After a pre-incubation at 37° C. for 1 to 3 min, NAD (1 mmol/L) was added, and the incubation was conducted at 37° C. for 20 min. The reaction was stopped by addition of 1 mL ethyl acetate:isooctane (1:1), and the steroids were then extracted into the organic phase and dried. The steroids in the dried extracts were resolved by HPLC and quantitated by in-line scintillation counting

[2] = Serum deoxycorticosterone at end of xenograft study; format: in vivo; details: serum from treated mice at the end of the xenograft study
Description: Mouse serum collection, derivatization and extraction. […] Louis, Mo.). Steroids were extracted with methyl tert-butyl ether (Sigma Aldrich, St. Louis, Mo.), evaporated under a stream of nitrogen gas and reconstituted in methanol:water (50:50) prior to mass spectrometry analysis. Mouse serum analysis. Samples were analyzed on a Thermo TSQ Quantiva-Prelude SPLC system (Thermo Scientific, Waltham, Mass.) with Aria MX 2.1 and Tracefinder 3.2.368.22 software for instrument controls and quantitation. […] Steroids were ionized by electrospray ionization and in positive ion mode. […] Concentrations were determined using stable isotope dilution analysis.

[3] = Abi metabolites in sera of patients with CRPC treated with Abi acetate; format: in vivo, human; details: patients undergoing treatment with Abi acetate
Description: Patient serum collection and drug extraction. Twelve patients with CRPC undergoing treatment with Abi acetate were consented under an Institutional Review Board—approved protocol (Case 7813). Blood was collected using Vacutainer Plus serum blood collection tubes (#BD367814, Becton Dickenson, Franklin Lakes, N.J.). Blood was collected between 2 and 14 hours after the 1000 mg daily dose of Abi acetate was administered. Blood was allowed to clot and tubes were centrifuged at 2500 RPM for 10 minutes. Serum aliquots were frozen at −80° C. until processing. Drug metabolites and internal standard (d4-cortisol, CDN isotopes Pointe-Claire, Quebec Canada) were extracted from 200 μL of patient serum with methyl tert-butyl ether (Sigma Aldrich, St. Louis, Mo.), evaporated under a stream of nitrogen gas and reconstituted in methanol prior to mass spectrometry analysis.
Patient serum analysis. Blood was obtained from prostate cancer patients with consent under a protocol approved by the Cleveland Clinic Institutional Review Board. Samples were analyzed on a ultra high-performance liquid chromatography station (Shimadzu, Kyoto, Japan) with a DGU-20A3R degasser, 2 LC-30AD pumps, a SIL-30AC autosampler, a CTO-10A column oven and a CBM-20A system controller in tandem with a QTRAP 5500 mass spectrometer (AB Sciex, Framingham, Mass.). […]

T1 sequence (P14060 whole entry): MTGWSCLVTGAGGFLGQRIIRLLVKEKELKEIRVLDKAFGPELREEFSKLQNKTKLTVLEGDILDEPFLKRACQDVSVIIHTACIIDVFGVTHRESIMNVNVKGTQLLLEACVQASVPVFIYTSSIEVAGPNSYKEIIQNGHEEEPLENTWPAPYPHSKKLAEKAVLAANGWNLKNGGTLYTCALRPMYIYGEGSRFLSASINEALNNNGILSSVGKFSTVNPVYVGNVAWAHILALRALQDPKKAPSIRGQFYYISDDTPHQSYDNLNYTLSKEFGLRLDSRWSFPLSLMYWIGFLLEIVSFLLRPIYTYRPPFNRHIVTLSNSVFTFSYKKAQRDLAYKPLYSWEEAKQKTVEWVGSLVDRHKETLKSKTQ

Structure (SMILES)	induction of androgen-responsive gene expression [1]	progression-free survival compared to control xenografts (VCaP CRPC xenografts)	type of inhibition of 3βHSD1 (human 3βHSD1)	serum deoxycorticosterone [2]	detection in sera of patients with CRPC [3]
C[C@]12CC[C@@H](O)C[C@@H]1CC[C@@H]1[C@@H]2CC[C@]2(C)C(c3cccnc3)=CC[C@@H]12 [Compound 3α-OH-5α-Abi, 17-(3-pyridyl)-5α-androsta-16-ene-3α-ol]	A lower level of induction	no detectable effect			
C[C@]12CCC(=O)C[C@@H]1CC[C@@H]1[C@@H]2CC[C@]2(C)C(c3cccnc3)=CC[C@@H]12 [Compound 5α-Abi, 17-(3-pyridyl)-5α-androsta-16-ene-3-one]	results in expression of androgen-responsive genes	significantly shortened progression-free survival			
C[C@]12CCC(=O)C=C1CC[C@@H]1[C@@H]2CC[C@]2(C)C(c3cccnc3)=CC[C@@H]12 [Compound D4A, 17-(3-Pyridyl)androsta-4,16-dien-3-one]			mixed competitive-noncompetitive inhibition; also recorded: mixed inhibition kinetics	no detectable increase	detectable
